Laboratory results from patent publication US20040116420A1 (priority 2001, published 2004).

Assays:
HSV-1 = experiment: Antiviral activity, HSV-1 in Vero cells, plaque method; assay type: cell-based; conditions: 90% inhibition of plaque formation
Protocol: An Assay Method for Antiviral Activity These complementary assay methods examine the capacity of a compound to inhibit the generation of new viruses and to inhibit the toxicity of the compound against the host cell. Toxicity indirectly decreases the generation of viruses. Thus, it is important to simultaneously conduct both assays in order to directly compare the results. The Vero cells were sown on a 96-well plate and then cultured overnight. The culture supernatant was removed, and 100 μl of 2% FBS-DMEM containing 50,000 plaque-forming units (hereinafter abbreviated as “pfu”) of HSV-1 was added. A viral solution was removed and 200 μl of 2% FBS-DMEM comprising a test compound was added. In this case, a substance to which 2% FBS-DMEM not comprising any test compound had been added was determined as a control. These infected cells were incubated in the presence of 5% CO2 at 37° C. for 20 hours, and the medium was once allowed to freeze at −80° C. The culture solution was dissolved, and the amount of viruses in the culture solution was assayed by the plaque method. The concentration of the test compound when it inhibited 90% of plaque formation relative to the control was determined to be EC 90.

HSV-1 protease = target: T1, HSV-1 protease (Human herpesvirus 1, UniProt P10210); experiment: Enzymatic assay for HSV-1 protease (assembly) inhibitor, fluorescence polarization; assay type: biochemical; conditions: read-out: HSV-1 Enzyme inhibition IC50
T1 construct: 6xHis (N); made in house; host or cells: baculovirus expression system
Protocol: An enzymatic assay method for an HSV-1 protease (assembly) inhibitor
The activity of an assembly protease was determined by fluorescence polarization. Biotin-gamma-amino butyrate-[…]-DTAF was used as a fluorescent substrate in accordance with an HSV-1 release and cleavage site. […] Changes in the sizes of fluorescent substrate molecules that increased with the use of avidin as a reaction terminator were assayed by fluorescence polarization.
The test compound was dissolved in DMF, and the resultant was diluted 5-fold with an assay buffer. 6.5 μl thereof was added to wells of a 96-well plate (a U-bottomed 96-well plate, Coster) that had previously been blocked with a blocking solution (10 mM Tris-HCl (pH 8.0), 150 mM sodium chloride, 0.05% Tween 20, 1 mg/ml of BSA). The enzyme was diluted to 21.3 μg/ml with an assay buffer (1M sodium citrate, 50 mM sodium phosphate (pH 7.4), 100 mM sodium chloride, 20% glycerol, 2 mM TCEP), and 48.5 μl of the resultant was added to each well. The plate was incubated at room temperature for 30 minutes, and 10 μl of 62.5 μg/ml substrate solution was then added to each well. The plate was incubated at room temperature for 60 minutes, and 50 μl of 2 mg/ml avidin phosphate buffer solution (50 mM sodium phosphate, 100 mM sodium chloride (pH 7.4)) was added to each well. The activity was determined in comparison with a compound without protease inhibitor using a microplate reader for fluorescence polarization.
HSV-1 protease was purified from a vaculovirus that had expressed a DNA construct encoding the reading frame for HSV-1UL26. This construct had further encoded 6 histidine residues at the amino terminus of the protease. These additional histidine residues impart affinity ligands purified by nickel-nitriloacetic acid-agarose (Qiagen). The purified protease was stored as a stock solution for a 20 mM HEPES buffer (pH 8.5, containing 20% v/v glycerin). This stock solution was diluted with an assay buffer and then used in the enzyme reaction.
In accordance with the cleavage specificity of the HSV-1 protease at the “release site” of the assembled protein, a specific substrate was synthesized (Diianni et al., J. Biol. Chem. 268, 2048 (1993)). This assembly protein-release site had the sequence • HTYLQA*SEKFKMW • , and the substrate used was biotin-gamma-amino butyrate-HTYLQA*SERFRIK-DTAF. This is a standard method for peptide synthesis, for example, as in the a method described in “The Practice of Peptide Synthesis” (Bodansky and Bodansky (1984)). The product was stored as a 2.5 mg/ml stock solution in DMF. The resultant was diluted to 62.5 μg/ml with a phosphate buffer (50 mM sodium phosphate, 100 mM sodium chloride, (pH 7.4)) immediately before its use.
An assay buffer (1M sodium citrate, 50 mM sodium phosphate (pH 7.4), 100 mM sodium chloride, 20% glycerol, 2 mM TCEP) was used to dilute a stock solution for the enzyme and that for the inhibitor.

[1] = Human alphaherpesvirus 1, 20 hours

T1 sequence (P10210 1-247): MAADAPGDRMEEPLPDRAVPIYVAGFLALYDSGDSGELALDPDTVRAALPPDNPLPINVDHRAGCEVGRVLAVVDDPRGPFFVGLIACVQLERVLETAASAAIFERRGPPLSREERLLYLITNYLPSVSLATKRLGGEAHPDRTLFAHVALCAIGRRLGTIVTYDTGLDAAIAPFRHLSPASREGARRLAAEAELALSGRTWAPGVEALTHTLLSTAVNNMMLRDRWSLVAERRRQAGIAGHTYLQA

SMILES | EC90 (HSV-1; [1]) | IC50 (HSV-1 protease) | EC90 (HSV-1; 20 hours)
Cc1c(NC(=O)OC(C)(C)C)ccc2nc(NC3(C(=O)N(C)Cc4cccnc4)CC3)oc(=O)c12 [Compound No.118, {5-Methyl-2-[1-(methyl-pyridin-3-ylmethyl-carbamoyl)-cyclopropylamino]-4-oxo-4H-benzo[d][1,3]oxazin-6-yl}-carbamic acid tert-butyl ester] | > 12.5 µM | 2.3 µM | 
Cc1c(NC(=O)OC(C)(C)C)ccc2nc(NC3(C(=O)N(C)Cc4cccnc4)CCCC3)oc(=O)c12 [Compound No.119, {5-Methyl-2-[1-(methyl-pyridin-3-ylmethyl-carbamoyl)-cyclopentylamino]-4-oxo-4H-benzo[d][1,3]oxazin-6-yl}-carbamic acid tert-butyl ester] | > 12.5 µM | 0.7 µM | 
Cc1c(NC(=O)OC(C)(C)C)ccc2nc(NC3(C(=O)N(C)Cc4ccncc4)CCCC3)oc(=O)c12 [Compound No.121, {5-Methyl-2-[1-(methyl-pyridin-4-ylmethyl-carbamoyl)-cyclopentylamino]-4-oxo-4H-benzo[d][1,3]oxazin-6-yl}-carbamic acid tert-butyl ester] | 11.5 µM | 2.8 µM | 
Cc1c(NC(=O)OC(C)(C)C)ccc2nc(NC3(C(=O)N(C)CCc4ccccn4)CC3)oc(=O)c12 [Compound No.122, (5-Methyl-2-{1-[methyl-(2-pyridin-2-yl-ethyl)-carbamoyl]-cyclopropylamino}-4-oxo-4H-benzo[d][1,3]oxazin-6-yl)-carbamic acid tert-butyl ester] | > 12.5 µM | 1.6 µM | 
Cc1c(NC(=O)OC(C)(C)C)ccc2nc(NC3(C(=O)N(C)CCc4ccccn4)CCCCC3)oc(=O)c12 [Compound No.124, (5-Methyl-2-{1-[methyl-(2-pyridin-2-yl-ethyl)-carbamoyl]-cyclohexylamino}-4-oxo-4H-benzo[d][1,3]oxazin-6-yl)-carbamic acid tert-butyl ester] | 6.1 µM | 1 µM | 
Cc1c(NC(=O)OC(C)(C)C)ccc2nc(NC3(C(=O)N(C)CCc4cccnc4)CC3)oc(=O)c12 [Compound No.125, (5-Methyl-2-{1-[methyl-(2-pyridin-3-yl-ethyl)-carbamoyl]-cyclopropylamino}-4-oxo-4H-benzo[d][1,3]oxazin-6-yl)-carbamic acid tert-butyl ester] | > 12.5 µM | 2.1 µM | 
Cc1c(NC(=O)OC(C)(C)C)ccc2nc(NC3(C(=O)N(C)CCc4ccncc4)CC3)oc(=O)c12 [Compound No.127, (5-Methyl-2-{1-[methyl-(2-pyridin-4-yl-ethyl)-carbamoyl]-cyclopropylamino}-4-oxo-4H-benzo[d][1,3]oxazin-6-yl)-carbamic acid tert-butyl ester] | > 12.5 µM | 1.8 µM | 
Cc1c(NC(=O)OC(C)(C)C)ccc2nc(N[C@H](C)C(=O)N(C)CCc3ccccn3)oc(=O)c12 [Compound No.132, (5-Methyl-2-{1R-[methyl-(2-pyridin-2-yl-ethyl)-carbamoyl]-ethylamino}-4-oxo-4H-benzo[d][1,3]oxazin-6-yl)-carbamic acid tert-butyl ester] | 15.8 µM | 0.8 µM | 
Cc1c(NC(=O)OC(C)(C)C)ccc2nc(NCCC(=O)N(C)CCc3ccccn3)oc(=O)c12 [Compound No.133, (5-Methyl-2-{2-[methyl-(2-pyridin-2-yl-ethyl)-carbamoyl]-ethylamino}-4-oxo-4H-benzo[d][1,3]oxazin-6-yl)-carbamic acid tert-butyl ester] | > 20 µM | 0.9 µM | 
Cc1c(NC(=O)c2cccs2)ccc2nc(NC(C)(C)C(=O)N(C)CCc3ccccn3)oc(=O)c12 [Compound No.134, Thiophene-2-carboxylic Acid (5-methyl-2-{1-methyl-1-[methyl-(2-pyridin-2-yl-ethyl)-carbamoyl]-ethylamino}-4-oxo-4H-benzo[d][1,3]oxazin-6-yl)-amide] | > 12.5 µM | 0.9 µM | 
Cc1c(NC(=O)c2cccs2)ccc2nc(N[C@@H](C)C(=O)N(C)CCc3ccccn3)oc(=O)c12 [Compound No.135, Thiophene-2-carboxylic acid (5-methyl-2-{1S-[methyl-(2-pyridin-2-yl-ethyl)-carbamoyl]-ethylamino}-4-oxo-4H-benzo[d][1,3]oxazin-6-yl)-amide] | > 12.5 µM | 1.3 µM | 
CCC(CC)C(=O)Nc1ccc2nc(NC(C)(C)C(=O)N(C)CCc3ccccn3)oc(=O)c2c1C [Compound No.197, 2-Ethyl-N-(5-methyl-2-{1-methyl-1-[methyl-(2-pyridin-2-yl-ethyl)-carbamoyl]-ethylamino}-4-oxo-4H-benzo[d][1,3]oxazin-6-yl)-butylamide] |  | 7.2 µM | ≥ 12.5 µM

Continued by falling IC50 (HSV-1 protease), values first:

EC90 (HSV-1; [1]) | IC50 (HSV-1 protease) | SMILES | EC90 (HSV-1; 20 hours)
> 12.5 µM | 0.7 µM | Cc1c(NC(=O)OC(C)(C)C)ccc2nc(NC(C)(C)C(=O)N(C)Cc3cccnc3)oc(=O)c12 [Compound No.117, {5-Methyl-2-[1-methyl-1-(methyl-pyridin-3-ylmethyl-carbamoyl)-ethylamino]-4-oxo-4H-benzo[d][1,3]oxazin-6-yl}-carbamic acid tert-butyl ester] | 
9.6 µM | 0.6 µM | Cc1c(NC(=O)OC(C)(C)C)ccc2nc(NC3(C(=O)N(C)CCc4ccccn4)CCCC3)oc(=O)c12 [Compound No.123, (5-Methyl-2-{1-[methyl-(2-pyridin-2-yl-ethyl)-carbamoyl]-cyclopentylamino}-4-oxo-4H-benzo[d][1,3]oxazin-6-yl)-carbamic acid tert-butyl ester] | 
> 12.5 µM | 0.5 µM | Cc1c(NC(=O)CCCNC(=O)c2ccncc2)ccc2nc(NC(C)(C)C(=O)N(C)CCc3ccccn3)oc(=O)c12 | 
8.6 µM | 0.4 µM | Cc1c(NC(=O)OC(C)(C)C)ccc2nc(NC3(C(=O)N(C)CCc4cccnc4)CCCC3)oc(=O)c12 [Compound No.126, (5-Methyl-2-{1-[methyl-(2-pyridin-3-yl-ethyl)-carbamoyl]-cyclopentylamino}-4-oxo-4H-benzo[d][1,3]oxazin-6-yl)-carbamic acid tert-butyl ester] | 
10.1 µM | 0.4 µM | Cc1c(NC(=O)OC(C)(C)C)ccc2nc(NC3(C(=O)N(C)CCc4ccncc4)CCCC3)oc(=O)c12 [Compound No.128, (5-Methyl-2-{1-[methyl-(2-pyridin-4-yl-ethyl)-carbamoyl]-cyclopentylamino}-4-oxo-4H-benzo[d][1,3]oxazin-6-yl)-carbamic acid tert-butyl ester] | 
> 20 µM | 0.4 µM | Cc1c(NC(=O)OC(C)(C)C)ccc2nc(NCC(=O)N(C)CCc3ccccn3)oc(=O)c12 [Compound No.130, [5-methyl-2-({[methyl-(2-pyridin-2-yl-ethyl)-carbamoyl]-methyl}-amino)-4-oxo-4H-benzo[d][1,3]oxazin-6-yl]-carbamic Acid Tert-Butyl Ester] | 
> 20 µM | 0.4 µM | Cc1c(NC(=O)OC(C)(C)C)ccc2nc(N(C)CC(=O)N(C)CCc3ccccn3)oc(=O)c12 [Compound No.131, [5-Methyl-2-(methyl-{[methyl-(2-pyridin-2-yl-ethyl)-carbamoyl]-methyl}-amino)-4-oxo-4H-benzo[d][1,3]oxazin-6-yl]-carbamic acid tert-butyl ester] | 
